Reference: patent US6989371B1, “Bombesin analogs for treatment of cancer” (Dabur Research Foundation, priority 1996, dated 2006)
Non-standard residues stand in square brackets, D forms with d. Residues, ends and D or L forms follow the SMILES beside them. *: point of attachment. Aib = CC(C)(N)C(=O)O; Butyryl = CCCC(=O)*

Tests used:
[1] = system: A549 (lung); experiment: MTT cytotoxicity assay, 72 hours (Example 13); format: cell-based, human
Experimental: (§1) The cytotoxic activity of other synthesized bombesin analogs was tested on eight human tumor cell lines namely HT-29, SW620, PTC (all colon), PA-1 (ovary), A549 (lung), HBL100(breast), MOLT-4 (leukemia) and DU145 (prostate). The tumor cells were collected at exponential growth phase and resuspended in medium (1.5×10^6) cells/ml in RPMI 1640 containing 10% FBS). 150 μl of medium was added to the wells of a 96-well tissue culture plate (Nunc, Denmark) followed by 30 μl of cell suspension. The plate was left in incubator (37° C., 5% CO2 overnight. 20 μl of the peptide (10^−7×10^×10M concentration) was added to marked wells of the 96-well plate. Each concentration was plated in cells served as blanks. A total volume of 200 μl was ensured in each well and plate was left in incubator (37° C., 5% CO2). After 72 hours of incubation an MTT assay was performed and percentage cytotoxicity was calculated with respect to control cells. Following tables show the cytotoxicity achieved on various cell lines at different concentrations.

[2] = system: DU145 (prostate); experiment: MTT cytotoxicity assay, 72 hours (Example 13); format: cell-based, human
Experimental: as §1

[3] = system: HBL100 (breast); experiment: MTT cytotoxicity assay, 72 hours (Example 13); format: cell-based, human; conditions: HBL
Experimental: as §1

[4] = system: HT-29 (colon); experiment: MTT cytotoxicity assay, 72 hours (Example 13); format: cell-based, human
Experimental: as §1

[5] = system: MOLT-4 (leukemia); experiment: MTT cytotoxicity assay, 72 hours (Example 13); format: cell-based, human
Experimental: as §1

[6] = system: PA-1 (ovary); experiment: MTT cytotoxicity assay, 72 hours (Example 13); format: cell-based, human
Experimental: as §1

[7] = system: PTC (colon); experiment: MTT cytotoxicity assay, 72 hours (Example 13); format: cell-based, human
Experimental: as §1

[8] = system: SW620 (colon); experiment: MTT cytotoxicity assay, 72 hours (Example 13); format: cell-based, human
Experimental: as §1

[9] = system: HBL 100 (Breast); experiment: MTT cytotoxicity assay, 48 hours (Example 14); format: cell-based, human
Experimental: (§2) The cytotoxic effect of peptide sequences SEQ ID NO: 9, SEQ ID NO: 10, SEQ ID NO: 11 and SEQ ID NO: 12, were studied by MTT assay which is based on the principle of uptake of MTT[3-[4,5-dimethylthiazol-2-yl]-2,5-diphenyl tetrazolium bromide], a tetrazolium salt by the metabolically active cells where it is metabolized by active mitochondria into a blue colored formazan product which can be read spectrophotometrically. Tumor cells KB (oral squamous). HuTu80 (Stomach), PTC and SW620 (colon), U87MG (Glioblastoma), HBL 100. (Breast), HeP2 (laryngeal) and L132 (Lung) were incubated with the peptide analogs for 48 hours at 37° C. in a 96-well culture plate, followed by the addition of 100 μl MTT and further incubation of 1 hour. The formazon crystals formed inside the cells were dissolved with a detergent comprising 10% Sodium dodecyl sulfate and 0.01 N HCl and optical density read on a multiscan ELISA reader. The optical density was directly proportional to the number of proliferating and metabolically active cells.

[10] = system: HuTu80 (Stomach); experiment: MTT cytotoxicity assay, 48 hours (Example 14); format: cell-based, human
Experimental: as §2

[11] = system: KB (oral squamous); experiment: MTT cytotoxicity assay, 48 hours (Example 14); format: cell-based, human
Experimental: as §2

[12] = system: PTC (colon); experiment: MTT cytotoxicity assay, 48 hours (Example 14); format: cell-based, human
Experimental: as §2

[13] = system: SW620 (colon); experiment: MTT cytotoxicity assay, 48 hours (Example 14); format: cell-based, human
Experimental: as §2

[14] = system: HeP2 (laryngeal); experiment: MTT cytotoxicity assay, 48 hours (Example 14); format: cell-based
Experimental: as §2

[15] = system: L132 (Lung); experiment: MTT cytotoxicity assay, 48 hours (Example 14); format: cell-based
Experimental: as §2

[16] = system: U87MG (Glioblastoma); experiment: MTT cytotoxicity assay, 48 hours (Example 14); format: cell-based
Experimental: as §2

CC(C)C[C@H](NC(=O)[C@H](Cc1c[nH]cn1)NC(=O)C(C)(C)NC(=O)[C@@H](NC(=O)[C@H](C)NC(=O)[C@@H](Cc1c[nH]c2ccccc12)NC(=O)[C@H](CCC(N)=O)NC(=O)[C@H](N)Cc1ccccc1)C(C)C)C(N)=O [SEQ ID: 5, D-Phe-Gln-D-Trp-Ala-Val-Aib-His-Leu-NH2] (H-[dF]Q[dW]AV[Aib]HL-NH2; N-terminus assumed)
Percent Cytotoxicity ([1]; A549, 1 nM): 20.2 ± 4.2%
Percent Cytotoxicity ([1]; A549, 10 nM): 22.2 ± 3.1%
Percent Cytotoxicity ([1]; A549, 100 nM): 30.3 ± 4.3%
Percent Cytotoxicity ([1]; A549, 100 PM): 25.2 ± 5.6%
Percent Cytotoxicity ([2]; DU145, 1 nM): 10.6 ± 0.9%
Percent Cytotoxicity ([2]; DU145, 10 nM): 22.0 ± 3.4%
Percent Cytotoxicity ([2]; DU145, 100 nM): 32.3 ± 3.8%
Percent Cytotoxicity ([2]; DU145, 100 PM): 29.3 ± 2.9%
Percent Cytotoxicity ([3]; 1 nM): 31.6 ± 5.3%
Percent Cytotoxicity ([3]; 10 nM): 16.7 ± 3.6%
Percent Cytotoxicity ([3]; 100 nM): 19.4 ± 4.5%
Percent Cytotoxicity ([3]; 100 PM): 19.3 ± 2.7%
Percent Cytotoxicity ([4]; HT29, 1 nM): 27.9 ± 2.9%
Percent Cytotoxicity ([4]; HT29, 10 nM): 44.4 ± 4.0%
Percent Cytotoxicity ([4]; HT29, 100 nM): 35.7 ± 2.8%
Percent Cytotoxicity ([4]; HT29, 100 PM): 42.0 ± 2.0%
Percent Cytotoxicity ([5]; MOLT4, 1 nM): 6.4 ± 0.2%
Percent Cytotoxicity ([5]; MOLT4, 10 nM): 4.3 ± 0.6%
Percent Cytotoxicity ([5]; MOLT4, 100 nM): NIL
Percent Cytotoxicity ([5]; MOLT4, 100 PM): 8.7 ± 0.6%
Percent Cytotoxicity ([6]; PA-1, 1 nM): 16.0 ± 3.9%
Percent Cytotoxicity ([6]; PA-1, 10 nM): 20.9 ± 5.3%
Percent Cytotoxicity ([6]; PA-1, 100 nM): 8.8 ± 1.9%
Percent Cytotoxicity ([6]; PA-1, 100 PM): 25.6 ± 6.3%
Percent Cytotoxicity ([7]; 1 nM): 23.0 ± 4.2%
Percent Cytotoxicity ([7]; 10 nM): 15.9 ± 2.4%
Percent Cytotoxicity ([7]; 100 nM): 20.4 ± 4.2%
Percent Cytotoxicity ([7]; 100 PM): 13.9 ± 2.2%
Percent Cytotoxicity ([8]; SW620, 1 nM): 29.7 ± 4.2%
Percent Cytotoxicity ([8]; SW620, 10 nM): 30.1 ± 4.0%
Percent Cytotoxicity ([8]; SW620, 100 nM): 25.6 ± 4.2%
Percent Cytotoxicity ([8]; SW620, 100 PM): 38.0 ± 3.8%

CC[C@H](C)[C@H](NC(=O)[C@H](Cc1c[nH]cn1)NC(=O)C(C)(C)NC(=O)[C@@H](NC(=O)[C@H](C)NC(=O)[C@H](Cc1c[nH]c2ccccc12)NC(=O)[C@H](CCC(N)=O)NC(=O)[C@H](N)Cc1ccccc1)C(C)C)C(N)=O [SEQ ID: 7, D-Phe-Gln-Trp-Ala-Val-Aib-His-Ile-NH2] (H-[dF]QWAV[Aib]HI-NH2; N-terminus assumed)
Percent Cytotoxicity ([1]; A549, 10 nM): 17.9 ± 0.9%
Percent Cytotoxicity ([1]; A549, 100 nM): 6.7 ± 2.0%
Percent Cytotoxicity ([2]; DU145, 10 nM): NIL
Percent Cytotoxicity ([2]; DU145, 100 nM): NIL
Percent Cytotoxicity ([3]; 1 nM): 12.0 ± 0.7%
Percent Cytotoxicity ([3]; 10 nM): 7.0 ± 0.7%
Percent Cytotoxicity ([3]; 100 nM): 16.1 ± 3.9%
Percent Cytotoxicity ([3]; 100 PM): 4.0 ± 0.6%
Percent Cytotoxicity ([4]; HT29, 10 nM): 28.2 ± 2.8%
Percent Cytotoxicity ([4]; HT29, 100 nM): 15.5 ± 1.9%
Percent Cytotoxicity ([5]; MOLT4, 1 nM): NIL
Percent Cytotoxicity ([5]; MOLT4, 10 nM): NIL
Percent Cytotoxicity ([5]; MOLT4, 100 nM): 13.1 ± 0.3%
Percent Cytotoxicity ([6]; PA-1, 1 nM): 25.6 ± 2.9%
Percent Cytotoxicity ([6]; PA-1, 10 nM): 22.7 ± 3.4%
Percent Cytotoxicity ([6]; PA-1, 100 nM): 9.6 ± 4.1%
Percent Cytotoxicity ([6]; PA-1, 100 PM): 24.5 ± 4.2%
Percent Cytotoxicity ([7]; 1 nM): 12.4 ± 2.1%
Percent Cytotoxicity ([7]; 10 nM): 7.6 ± 0.7%
Percent Cytotoxicity ([7]; 100 nM): 9.3 ± 1.8%
Percent Cytotoxicity ([7]; 100 PM): 8.2 ± 0.9%
Percent Cytotoxicity ([8]; SW620, 1 nM): 32.0 ± 5.8%
Percent Cytotoxicity ([8]; SW620, 10 nM): 20.8 ± 1.9%
Percent Cytotoxicity ([8]; SW620, 100 nM): 25.4 ± 2.9%
Percent Cytotoxicity ([8]; SW620, 100 PM): 33.6 ± 5.8%

CCCC(=O)N[C@H](Cc1ccccc1)C(=O)N[C@@H](CCC(N)=O)C(=O)N[C@@H](Cc1c[nH]c2ccccc12)C(=O)N[C@@H](C)C(=O)N[C@H](C(=O)NC(C)(C)C(=O)N[C@@H](Cc1c[nH]cn1)C(=O)N[C@@H](CC(C)C)C(N)=O)C(C)C [SEQ ID: 11, Butanoyl-D-Phe-Gln-Trp-Ala-Val-Aib-His-Leu-NH2] (Butyryl-[dF]QWAV[Aib]HL-NH2)
Percentage cytotoxicity ([9]; HBL100, 10 pM): 18.2 ± 1.1%
Percentage cytotoxicity ([9]; HBL100, 100 pM): 15.4 ± 4.1%
Percentage cytotoxicity ([9]; HBL100, 1 nM): 24.3 ± 1.6%
Percentage cytotoxicity ([9]; HBL100, 10 nM): 29.9 ± 0.3%
Percentage cytotoxicity ([9]; HBL100, 100 nM): 22.7 ± 0.5%
Percentage cytotoxicity ([9]; HBL100, 1 μM): 24.5 ± 0.8%
Percentage cytotoxicity ([10]; HuTu80, 10 pM): 17.6 ± 1.6%
Percentage cytotoxicity ([10]; HuTu80, 100 pM): 22.6 ± 3.9%
Percentage cytotoxicity ([10]; HuTu80, 1 nM): 30.5 ± 4.1%
Percentage cytotoxicity ([10]; HuTu80, 10 nM): 27.3 ± 2.7%
Percentage cytotoxicity ([10]; HuTu80, 100 nM): 20.0 ± 3.1%
Percentage cytotoxicity ([10]; HuTu80, 1 μM): 14.2 ± 0.1%
Percentage cytotoxicity ([11]; 10 pM): 21.6 ± 3.7%
Percentage cytotoxicity ([11]; 100 pM): 26.7 ± 5.1%
Percentage cytotoxicity ([11]; 1 nM): 33.1 ± 2.1%
Percentage cytotoxicity ([11]; 10 nM): 31.9 ± 3.1%
Percentage cytotoxicity ([11]; 100 nM): 31.9 ± 2.1%
Percentage cytotoxicity ([11]; 1 μM): 24.2 ± 1.2%
Percentage cytotoxicity ([12]; 10 pM): 19.7 ± 0.6%
Percentage cytotoxicity ([12]; 100 pM): 28.3 ± 0.8%
Percentage cytotoxicity ([12]; 1 nM): 28.5 ± 2.8%
Percentage cytotoxicity ([12]; 10 nM): 25.7 ± 4.1%
Percentage cytotoxicity ([12]; 100 nM): 25.8 ± 2.5%
Percentage cytotoxicity ([12]; 1 μM): 18.6 ± 1.5%
Percentage cytotoxicity ([13]; SW620, 10 pM): 20.4 ± 0.3%
Percentage cytotoxicity ([13]; SW620, 100 pM): 25.9 ± 3.8%
Percentage cytotoxicity ([13]; SW620, 1 nM): 35.1 ± 2.2%
Percentage cytotoxicity ([13]; SW620, 10 nM): 31.5 ± 2.6%
Percentage cytotoxicity ([13]; SW620, 100 nM): 21.0 ± 1.5%
Percentage cytotoxicity ([13]; SW620, 1 μM): 23.7 ± 1.4%
Percentage cytotoxicity ([14]; HeP2, 10 pM): 15.1 ± 0.3%
Percentage cytotoxicity ([14]; HeP2, 100 pM): 20.1 ± 0.0%
Percentage cytotoxicity ([14]; HeP2, 1 nM): 37.1 ± 3.3%
Percentage cytotoxicity ([14]; HeP2, 10 nM): 34.6 ± 2.2%
Percentage cytotoxicity ([14]; HeP2, 100 nM): 23.9 ± 1.1%
Percentage cytotoxicity ([14]; HeP2, 1 μM): 21.9 ± 2.1%
Percentage cytotoxicity ([15]; L132, 10 pM): 0.5 ± 0.0%
Percentage cytotoxicity ([15]; L132, 100 pM): 18.3 ± 0.9%
Percentage cytotoxicity ([15]; L132, 1 nM): 29.4 ± 0.4%
Percentage cytotoxicity ([15]; L132, 10 nM): 30.4 ± 0.4%
Percentage cytotoxicity ([15]; L132, 100 nM): 20.4 ± 1.5%
Percentage cytotoxicity ([15]; L132, 1 μM): 1.4 ± 1.1%
Percentage cytotoxicity ([16]; 10 pM): 21.9 ± 2.1%
Percentage cytotoxicity ([16]; 100 pM): 26.5 ± 2.6%
Percentage cytotoxicity ([16]; 1 nM): 24.2 ± 1.7%
Percentage cytotoxicity ([16]; 10 nM): 20.0 ± 0.0%
Percentage cytotoxicity ([16]; 100 nM): 15.5 ± 0.6%
Percentage cytotoxicity ([16]; 1 μM): 1.0 ± 0.1%
